Data set [1] in a line: Cytotoxicity determination in HepG2.2.15 cells (CCK-8 cell viability). To be noted: human, 6 days treatment, CCK-8, highest concentration 100 uM. Format: cell-based. The method, then:
(§1) HepG2.2.15 (the HepG2.2.15 cell line can be produced by transfection of the HepG2 cell line as described in Sells, Chen, and Acs 1987 (Proc. Natl. Acad. Sci. USA 84: 1005-1009), and the HepG2 cell line is available from ATCC® under number HB-8065™).
(§2) HepG2.2.15 cells were plated into 96-well plate in 2% FBS culture medium at the density of 40,000 cells/well and 5,000 cells/well for HBV inhibitory activity and cytotoxicity determination, respectively. After incubation at 37° C., 5% CO2 overnight, cells were treated with medium containing compounds for 6 days with medium and compounds refreshed after 3 days of treatment. Each compound was tested in a 1:3 serial dilutions at 8 different concentrations in triplicate. The highest concentration of the compounds was 10 uM or 1 uM for anti-HBV activity assay and 100 uM for cytotoxicity determination. Cell viability was determined by CCK-8 assay. After 6 days of compounds treatment, 20 μl CCK-8 reagents were added to each well of cytotoxicity assay plates. Cell plates were incubated at 37° C., 5% CO2 for 2.5 h. The absorbance at 450 nm wavelength and the absorbance at 630 nm wavelength as reference was measured.
(§3) EC50 and CC50 values are calculated by the GRAPHPAD PRISM software.

The subject of data set [2] is HBV. Nature of the data set: Anti-viral assay in HepG2.2.15 cells: HBV DNA in culture medium by qPCR. The class given is cell-based. The settings on record: Hepatitis B virus, HepG2.2.15, 144 h, HepG2.2.15 cells, 6 days treatment, HBV DNA in culture medium by real-time PCR; read-out: EC50. The method, then: as §1, §2
The change of HBV DNA level induced by the compounds was assessed by quantitative real-time polymerase chain reaction (qPCR). Briefly, the HBV DNA in the culture medium was extracted using QlAamp 96 DNA Blood Kit according to the manual and then quantified by real-time PCR assay using the primers and probe in the table 1 below.
as §3
In general terms: In qPCR the cycle at which signal appears reflects the starting amount.

The record followed here is patent US20230002408A1, “HETEROARYLDIHYDROPYRIMIDINE DERIVATIVES AND METHODS OF TREATING HEPATITIS B INFECTIONS” (JANSSEN PHARMACEUTICA NV, priority 2019, published 2023).

In general, CC50 refers to the concentration giving 50% cytotoxicity. Low values mean harm at low concentration, high ones better tolerance by the cells. For orientation: pEC50 means −log10 of the EC50, conventionally taken in molar units.

pEC50: −log10 of the molar value.

In turn, `COC(=O)C1=C(CN2CCO[C@H]3CN(CC(C)(C)C(=O)O)C(=O)[C@H]32)NC(c2nccs2)=N[C@H]1c1cccc(F)c1C` (single isomer, unassigned) [Compound I-19A, 3-((4aS*,7aS*)-4-4(S*)-6-(3-fluoro-2-methylphenyl)-5-(methoxycarbonyl)-2-(thiazol-2-yl)-3,6-dihydropyrimidin-4-yl)methyl)-5-oxohexahydropyrrolo[3,4-b][1,4]oxazin-6(2H)-yl)-2,2-dimethylpropanoic acid] yielded a CC50 at 6 days in data set [1] of 59.1 µM. In addition, the negative logarithm of the EC50 (pEC50) in data set [2] is 7.55.

Regarding `COC(=O)C1=C(CN2CCO[C@@H]3CN(C(=O)OC(C)(C)C)C[C@@H]32)NC(c2ncc(F)cc2F)=N[C@@H]1c1ccc(F)cc1Cl` (single isomer, unassigned) [Reference 1H, (4aS*,7aR*)-tert-butyl 4-(((S*)-6-(2-chloro-4-fluorophenyl)-2-(3,5-difluoropyridin-2-yl)-5-(methoxycarbonyl)-3,6-dihydropyrimidin-4-yl)methyl)hexahydropyrrolo[3,4-b][1,4]oxazine-6(2H)-carboxylate, reference compound], it took 8.7 µM to reach half-maximal cytotoxicity in data set [1] (CC50 at 6 days). The pEC50 in data set [2] was less than 6.00.

`CCOC(=O)C1=C(CN2CCO[C@H]3CN(CC(C)(C)C(=O)O)C(=O)[C@H]32)NC(c2nccs2)=N[C@H]1c1cccc(F)c1Cl` (single isomer, unassigned) [Compound I-18A, 3-((4aS*,7aS*)-4-4(R*)-6-(2-chloro-3-fluorophenyl)-5-(ethoxycarbonyl)-2-(thiazol-2-yl)-3,6-dihydropyrimidin-4-yl)methyl)-5-oxohexahydropyrrolo[3,4-b][1,4]oxazin-6(2H)-yl)-2,2-dimethylpropanoic acid] yielded a half-maximal cytotoxic concentration (CC50) at 6 days in data set [1] of 62.4 µM. The pEC50 in data set [2] was 8.15.

For `CCOC(=O)C1=C(CN2CCO[C@@H]3CN(S(=O)(=O)C4CC(C)(C(=O)O)C4)C[C@@H]32)NC(c2nccs2)=N[C@H]1c1cccc(F)c1C` (relative stereo) [Compound I-9F, (4aS*,7aR*)—(S)-3-((4-((5-(Ethoxycarbonyl)-6-(3-fluoro-2-methylphenyl)-2-(thiazol-2-yl)-3,6-dihydropyrimidin-4-yl)methyphexahydropyrrolo[3,4-b][1,4]oxazin-6(2H)-yl)sulfonyl)-1-methylcyclobutanecarboxylic acid], it took 82.6 µM to reach half-maximal cytotoxicity in data set [1] (CC50 at 6 days). In data set [2], the pEC50 is 6.96.

In the case of `CCOC(=O)C1=C(CN2CCO[C@@H]3CN(S(C)(=O)=O)C[C@@H]32)NC(c2nccs2)=N[C@H]1c1cccc(F)c1C` (racemic) [Compound I-7F, (S)-(cis)-Ethyl 4-(3-fluoro-2-methylphenyl)-6-((6-(methylsulfonyl)hexahydropyrrolo[3,4-b][1,4]oxazin-4(4aH)-yl)methyl)-2-(thiazol-2-yl)-1,4-dihydropyrimidine-5-carboxylate], half-maximal cytotoxicity in data set [1] (CC50 at 6 days) was put at 26.4 µM. The pEC50 in data set [2] was 8.10.

As for `COC(=O)C1=C(CN2CCO[C@H]3CN(CC(C)(C)C(=O)O)C[C@H]32)NC(c2nccs2)=N[C@H]1c1cccc(F)c1C` (single isomer, unassigned) [Compound I-14A, 3-((4aR*,7aS*)-4-0(S*)-6-(3-fluoro-2-methylphenyl)-5-(methoxycarbonyl)-2-(thiazol-2-yl)-3,6-dihydropyrimidin-4-yl)methyl)hexahydropyrrolo[3,4-b][1,4]oxazin-6(2H)-yl)-2,2-dimethylpropanoic acid], the CC50 at 6 days in data set [1] is more than 100 µM. For the same molecule, in data set [2], the pEC50 is 7.48.

In data set [1], `COC(=O)C1=C(CN2CCO[C@H]3CN(CC(C)(C)C(=O)O)C[C@H]32)NC(c2nccs2)=N[C@H]1c1cccc(F)c1Cl` (single isomer, unassigned) [Compound I-16A, 3-((4aR*,7aS*)-4-0(R*)-6-(2-Chloro-3-fluorophenyl)-5-(methoxycarbonyl)-2-(thiazol-2-yl)-3,6-dihydropyrimidin-4-yl)methyl)hexahydropyrrolo[3,4-b][1,4]oxazin-6(2H)-yl)-2,2-dimethylpropanoic acid] yielded a CC50 at 6 days of 92.8 µM. The pEC50 in data set [2] is 7.82.

In the case of `COC(=O)C1=C(CN2CCO[C@H]3CN(C(=O)OC(C)(C)C)C[C@H]32)NC(c2ncc(F)cc2F)=N[C@H]1c1ccc(F)cc1Cl` (single isomer, unassigned) [Reference 1E, tert-butyl (4aR*,7aS*)-4-4(R*)-6-(2-chloro-4-fluorophenyl)-2-(3,5-difluoropyridin-2-yl)-5-(methoxycarbonyl)-3,6-dihydropyrimidin-4-yl)methyl)hexahydropyrrolo[3,4-b][1,4]oxazine-6(2H)-carboxylate, reference compound], the CC50 at 6 days in data set [1] is 11.7 µM. Besides, in data set [2], the pEC50 is less than 6.00.

The molecule `COC(=O)C1=C(CN2CCO[C@@H]3CN(C(=O)OC(C)(C)C)C[C@@H]32)NC(c2ncc(F)cc2F)=N[C@H]1c1ccc(F)cc1Cl` (single isomer, unassigned) [Reference 1G, (4aS*,7aR*)-tert-butyl 4-(((R*)-6-(2-chloro-4-fluorophenyl)-2-(3,5-difluoropyridin-2-yl)-5-(methoxycarbonyl)-3,6-dihydropyrimidin-4-yl)methyl)hexahydropyrrolo[3,4-b][1,4]oxazine-6(2H)-carboxylate, reference compound] yielded a CC50 at 6 days in data set [1] of 14.5 µM. The pEC50 in data set [2] is less than 6.00.

Molecule `COC(=O)C1=C(CN2CCO[C@H]3CN(C(=O)OC(C)(C)C)C[C@@H]32)NC(c2ncc(F)cc2F)=N[C@H]1c1ccc(F)cc1Cl` (single isomer, unassigned) [Reference 1B, (4aS*,7aS*)-tert-butyl 4-(((R*)-6-(2-chloro-4-fluorophenyl)-2-(3,5-difluoropyridin-2-yl)-5-(methoxycarbonyl)-3,6-dihydropyrimidin-4-yl)methyl)hexahydropyrrolo[3,4-b][1,4]oxazine-6(2H)-carboxylate, reference compound] registered a CC50 at 6 days in data set [1] of 2.5 µM. In data set [2], the pEC50 was less than 6.00.

Take `CCOC(=O)C1=C(CN2CCO[C@H]3CCN(CC(C)(C)C(=O)O)C[C@H]32)NC(c2nccs2)=N[C@H]1c1cccc(F)c1C` (single isomer, unassigned) [Compound I-10A, 3-((4aR*,8aS*)-4-(((S)-5-(Ethoxycarbonyl)-6-(3-fluoro-2-methylphenyl)-2-(thiazol-2-yl)-3,6-dihydropyrimidin-4-yl)methyl)hexahydro-2H-pyrido[4,3-b][1,4]oxazin-6(7H)-yl)-2,2-dimethylpropanoic acid]: the cytotoxic concentration (CC50) at 6 days in data set [1] was 94.5 µM. The pEC50 in data set [2] is 7.55.

`COC(=O)C1=C(CN2CCO[C@H]3CN(CC(C)(C)C(=O)O)C(=O)[C@H]32)NC(c2nccs2)=N[C@H]1c1ccc(F)c(F)c1Cl` (single isomer, unassigned) [Compound I-22A, 3-((4aS*,7aS*)-4-4(R*)-6-(2-chloro-3,4-difluorophenyl)-5-(methoxycarbonyl)-2-(thiazol-2-yl)-3,6-dihydropyrimidin-4-yl)methyl)-5-oxohexahydropyrrolo[3,4-b][1,4]oxazin-6(2H)-yl)-2,2-dimethylpropanoic acid] had a CC50 at 6 days in data set [1] of 44.3 µM. Further, in data set [2], the negative logarithm of the EC50 (pEC50) was 9.30.

In the case of `COC(=O)C1=C(CN2CCO[C@H]3CN(C(=O)OC(C)(C)C)C[C@@H]32)NC(c2ncc(F)cc2F)=N[C@@H]1c1ccc(F)cc1Cl` (single isomer, unassigned) [Reference 1D, (4aS*,7aS*)-tert-butyl 4-4(S*)-6-(2-chloro-4-fluorophenyl)-2-(3,5-difluoropyridin-2-yl)-5-(methoxycarbonyl)-3,6-dihydropyrimidin-4-yl)methyl)hexahydropyrrolo[3,4-b][1,4]oxazine-6(2H)-carboxylate, reference compound], in data set [1], the CC50 at 6 days amounted to 5.6 µM. The pEC50 in data set [2] is 6.09.

`COC(=O)C1=C(CN2CCO[C@H]3CN(CC(C)(C)C(=O)O)C[C@H]32)NC(c2nccs2)=N[C@H]1c1ccc(F)cc1Cl` (single isomer, unassigned) [Compound I-15A, 3-((4aR*,7aS*)-4-((R*)-6-(2-Chloro-4-fluorophenyl)-5-(methoxycarbonyl)-2-(thiazol-2-yl)-3,6-dihydropyrimidin-4-yl)methyl)hexahydropyrrolo[3,4-b][1,4]oxazin-6(2H)-yl)-2,2-dimethylpropanoic acid] displayed a CC50 at 6 days in data set [1] of more than 100 µM. Moreover, in data set [2], the pEC50 was 7.72.

Consider `COC(=O)C1=C(CN2CCO[C@@H]3CN(C(=O)OC(C)(C)C)C[C@H]32)NC(c2ncc(F)cc2F)=N[C@@H]1c1ccc(F)cc1Cl` (single isomer, unassigned) [Reference 1C, (4aR*,7aR*)-tert-butyl 4-4(S*)-6-(2-chloro-4-fluorophenyl)-2-(3,5-difluoropyridin-2-yl)-5-(methoxycarbonyl)-3,6-dihydropyrimidin-4-yl)methyl)hexahydropyrrolo[3,4-b][1,4]oxazine-6(2H)-carboxylate, reference compound], for which, in data set [1], half-maximal cytotoxicity (CC50 at 6 days) was put at 3.7 µM. For the same molecule, the pEC50 in data set [2] is 6.17.
